Data taken from patent US10800789B2, “Antiviral compounds” (Gilead Pharmasset LLC, priority 2012, dated 2020).
Where two headings read alike, the source gives them in different places.

How the values were obtained:
[1] = tested on: stable HCV 1b RLuc replicon cells (dicistronic genotype 1b Con1 replicon); assay: Renilla luciferase HCV replicon reporter assay, genotype 1b; format: cell-based; settings: Hepatitis C virus, 72 h, stable 1b Con1 RLuc replicon cells, 72 hours; read-out: 1b
Summary of the method: (§1)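 72 h compound exposure (3-fold dilutions from 10 mM DMSO stocks) of replicon cells: stable dicistronic RLuc 1a H77, 1b Con1, 2a JFH-1 (NS5A L31); J6-NS5A chimera in JFH-1 (M31), transient in Huh-Lunet or stable. Renilla luciferase read-out, non-linear regression → EC50. DMSO negative control.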

[2] = tested on: stable HCV 1a RLuc replicon cells (dicistronic genotype 1a H77 replicon); assay: Renilla luciferase HCV replicon reporter assay, genotype 1a; format: cell-based; settings: Hepatitis C virus, 72 h, stable 1a H77 RLuc replicon cells
Summary of the method: as §1

[3] = tested on: stable HCV 2a JFH-1 Rluc replicon cells (L31 present in NS5A); assay: Renilla luciferase HCV replicon reporter assay, genotype 2a JFH-1; format: cell-based; settings: Hepatitis C virus
Summary of the method: as §1

[4] = tested on: NS5A chimeric genotype 2a JFH-1 replicon with genotype 2a J6 strain NS5A gene (M31 present); assay: Replicon assay, genotype 2a J6 NS5A chimera; format: cell-based, HCV; settings: Hepatitis C virus
Summary of the method: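 Antiviral EC50 was determined in HCV replicon cells (stable RLuc lines for 1a H77, 1b Con1, 2a JFH-1 with NS5A L31; J6 NS5A chimera with M31) treated 72 h with compound. Renilla luciferase was then quantified.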

[5] = tested on: NS5A chimeric genotype 2a JFH-1 replicon with genotype 2b MD2b-1 strain NS5A gene (M31 present); assay: Replicon assay, genotype 2b NS5A chimera; format: cell-based, HCV; settings: Hepatitis C virus
Summary of the method: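 EC50 was fitted by non-linear regression to Renilla luciferase signal after 72 h of exposure to 3-fold serially diluted compound (10 mM DMSO stocks). Controls were DMSO (none) and ITMN-191 above 100×EC50 (full). Chimeric 2a replicons were used either stable or transiently transfected into Huh-Lunet cells.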

[6] = tested on: NS5A chimeric genotype 1b Con1 replicon with genotype 3a S52 strain NS5A gene; assay: Replicon assay, genotype 3a NS5A chimera; format: cell-based, HCV; settings: Hepatitis C virus
[7] = tested on: NS5A chimeric genotype 1b Con1 replicon with genotype 4a ED43 strain NS5A gene; assay: Replicon assay, genotype 4a NS5A chimera; format: cell-based, HCV; settings: Hepatitis C virus
[8] = IV and PO single dose pharmacokinetic studies in SD rats; format: in vivo, male Sprague-Dawley (SD) rats; settings: Sprague-Dawley, rat, plasma, male SD rats, PO 2 mg/kg vs IV infusion 1 mg/kg, read-out: Rat % F
Protocol: IV and PO Single Dose Pharmacokinetic Studies in SD Rats:
The pharmacokinetics of selected compounds was characterized in male Sprague-Dawley (SD) rats (250-300g). In this study, two groups of naïve purebred SD rats (N=3 per group, fasted over night) received the selected compound either as an intravenous (IV) infusion (1 mg/kg over 30 minutes) via the jugular vein or by oral gavage (2 mg/kg). The intravenous (IV) dosing vehicle was 5% ethanol, 35% polyethylene glycol 400 (PEG 400) and 60% water pH 2.0. The oral dosing vehicle was 5% ethanol, 55% PEG 400 and 40% citrate buffer pH 2.2.
Serial blood samples (approximately 0.3 mL each) were collected from jugular vein or other suitable vein at specified time points. For the IV infusion group, the blood samples were collected predose and at 0.25, 0.48, 0.58, 0.75, 1.5, 3, 6, 8, 12 and 24 hours after the start of infusion. For the oral group, the blood samples were collected predose and at 0.25, 0.50, 1, 2, 4, 6, 8, 12 and 24 hours after dosing. The blood samples were collected into VacutainerγM tubes containing EDTA-K3 as the anti-coagulant and were centrifuged at approximately 4° C. to obtain plasma. The plasma samples were stored at −20° C. until analysis by LC/MS/MS.
A bioanalytical method utilizing high performance liquid chromatography coupled to tandem mass spectrometry (LC/MS/MS) was developed for analysis of the selected compound in rat plasma. Detection was performed using selected reaction monitoring (SRM); Ions representing the precursor (M+H)^+ species was selected in quadrupole 1 (Q1) and collided with argon gas in the collision cell (Q2) to generate specific product ion, which was subsequently monitored by quadrupole 3 (Q3). Standard curve and quality control samples were prepared in male rat plasma and processed in the same way as the test samples to generate quantitative data.
Pharmacokinetic parameters were generated using non-compartmental pharmacokinetic analysis (Phoenix WinNonlin, version 6.3). Values below the lower limit of quantification (LLOQ) were assigned a value of zero if predose and treated as missing thereafter. Area under the curve (AUC) was calculated using the linear trapezoidal rule. The oral bioavailability (% F) was determined by comparison of the area under the curve (AUC) of the compound and/or a metabolite generated in plasma following oral administration to that generated following intravenous administration.

[9] = read-out: 2a JFH (nM), genotype 2a JFH-1 replicon (L31 in NS5A), stable cells
[10] = read-out: 2a JFH, stable 2a JFH-1 Rluc replicon cells, L31 in NS5A, activity range
[11] = read-out: 2a J6 (t) (nM), genotype 2a J6 NS5A chimeric replicon (M31), transiently transfected (t) into Huh-Lunet cells
[12] = read-out: 2a J6 (t), transiently transfected (t) into Huh-Lunet cells, activity range
[13] = 2BS, read-out: 2b (s), stably replicating replicon cells (s), activity range
[14] = read-out: 2b (s) (nM), genotype 2b MD2b-1 NS5A chimeric replicon (M31), stably replicating replicon cells (s)
[15] = read-out: 3a (s) (nM), genotype 3a NS5A chimeric replicon, stable replicon cells (s)
[16] = read-out: 3a (s), (s), activity range
[17] = read-out: 4a (s) (nM), genotype 4a NS5A chimeric replicon, stable replicon cells (s)
[18] = read-out: 4a (s), (s), activity range

SMILES | EC50 [1] [nM] | EC50 [2] [nM] | EC50 ([2]; activity range) [nM] | EC50 [3, 9] [nM] | EC50 [3, 10] [nM] | EC50 [4, 11] [nM] | EC50 [4, 12] [nM] | EC50 [5, 13] [nM] | EC50 [5, 14] [nM] | EC50 [6, 15] [nM] | EC50 [6, 16] [nM] | EC50 [7, 17] [nM] | EC50 [7, 18] [nM] | bioavailability [8] [%] | EC50 ([5]; read-out: 2b (t) (nM), genotype 2b MD2b-1 NS5A chimeric replicon (M31), transiently transfected (t)) [nM] | EC50 ([5]; read-out: 2b (t), transiently transfected (t) into Huh-Lunet cells, activity range) [nM] | EC50 ([6]; read-out: 3a (t) (nM), genotype 3a NS5A chimeric replicon, transiently transfected (t)) [nM] | EC50 ([6]; read-out: 3a (t), transiently transfected (t) into Huh-Lunet cells, activity range) [nM] | EC50 ([4]; read-out: 2a J6 (s) (nM), genotype 2a J6 NS5A chimeric replicon (M31), stably replicating replicon cells (s)) [nM] | EC50 ([4]; read-out: 2a J6 (s), stably replicating replicon cells (s), activity range) [nM]
COC(=O)N[C@H](C(=O)N1C[C@@H](C)C[C@H]1c1nc2ccc3cc4c(cc3c2[nH]1)OCc1cc(-c2cnc([C@@H]3CC[C@H](C)N3C(=O)[C@@H](NC(=O)OC)[C@@H](C)OC)[nH]2)ccc1-4)C(C)C [GA] | 0.035 | 0.019 | < 0.1 | 0.018 | < 0.1 | 0.064 | < 0.1 | 0.1 to 0.999 | 0.245 | 0.063 | < 0.1 | 0.016 | < 0.1 | 3.2 | – | – | – | – | – | –
COC(=O)N[C@H](C(=O)N1C[C@@H](C)C[C@H]1c1nc2ccc3cc4c(cc3c2[nH]1)OCc1cc(-c2cnc([C@@H]3CC[C@H](C)N3C(=O)[C@@H](NC(=O)OC)[C@@H](C)OC)[nH]2)ccc1-4)[C@@H](C)OC [DY, Methyl [(2S,3R)-3-methoxy-1-{(2S,5S)-2-[9-(2-{(2S,5S)-1-[N-(methoxycarbonyl)-O-methyl-L-threonyl]-5-methylpyrrolidin-2-yl}-1H-imidazol-5-yl)-1,11-dihydroisochromeno[4′,3′:6,7]naphtho[1,2-d]imidazol-2-yl]-4-methylpyrrolidin-1-yl}-1-oxobutan-2-yl]carbamate] | 0.065 | 0.044 | < 0.1 | 0.028 | < 0.1 | 0.047 | < 0.1 | 0.1 to 0.999 | 0.199 | 0.13 | 0.1 to 0.999 | 0.035 | < 0.1 | 8.3 | 0.083 | < 0.1 | – | – | – | –
COC(=O)N[C@H](C(=O)N1[C@@H](C)CC[C@H]1c1ncc(-c2ccc3c(c2)COc2cc4c(ccc5nc([C@@H]6C[C@H](C)CN6C(=O)[C@@H](NC(=O)OC)C6CCOCC6)[nH]c54)cc2-3)[nH]1)C(C)C [EI, methyl[(1 S)-2-[(2S,4S)-2-(9-{2-[(2S,5S)-1-{(2S)-2-[(methoxycarbonyl)amino]-3-methylbutanoyl}-5-methylpyrrolidin-2-yl]-1H-imidazol-5-yl}-1,11 dihydroisochromeno[4′,3′:6,7]naphtho[1,2-d]imidazol-2-yl)-4-methylpyrrolidin-1-yl]-2-oxo-1-(tetra hydro-2H-pyran-4-yl)ethyl]carbamate] | 0.048 | 0.025 | < 0.1 | 0.033 | < 0.1 | 0.022 | < 0.1 | < 0.1 | 0.048 | 0.077 | < 0.1 | 0.02 | < 0.1 | 4.4 | – | – | 0.074 | < 0.1 | – | –
COC(=O)N[C@H](C(=O)N1[C@H](c2ncc(-c3ccc4c(c3)COc3cc5c(ccc6nc([C@@H]7C[C@@H]8CCC[C@@H]8N7C(=O)[C@@H](NC(=O)OC)C7CCOCC7)[nH]c65)cc3-4)[nH]2)C[C@@H]2CCC[C@@H]21)C(C)C [IT] | 0.017 | 0.012 | < 0.1 | 0.017 | < 0.1 | – | – | < 0.1 | 0.064 | 0.032 | < 0.1 | 0.004 | < 0.1 | 16.2 | – | – | – | – | 0.007 | < 0.1
CC[C@H]1CC[C@@H](c2ncc(-c3ccc4c(c3)COc3cc5c(ccc6nc([C@@H]7CC[C@H](CC)N7C(=O)[C@@H](NC(=O)OC)C7CCOCC7)[nH]c65)cc3-4)[nH]2)N1C(=O)[C@@H](NC(=O)OC)C(C)C [IG] | 0.035 | 0.027 | < 0.1 | 0.034 | < 0.1 | 0.122 | 0.1 to 0.999 | 0.1 to 0.999 | 0.25 | 0.787 | 0.1 to 0.999 | 0.025 | < 0.1 | 28.2 | – | – | – | – | – | –
CC[C@H]1CC[C@@H](c2ncc(-c3ccc4c(c3)COc3cc5c(ccc6nc([C@@H]7CC[C@H](CC)N7C(=O)[C@@H](NC(=O)OC)C7CCOCC7)[nH]c65)cc3-4)[nH]2)N1C(=O)[C@@H](NC(=O)OC)C1CCOCC1 [IE] | 0.054 | 0.042 | < 0.1 | 0.035 | < 0.1 | 0.042 | < 0.1 | < 0.1 | 0.065 | 0.198 | 0.1 to 0.999 | 0.039 | < 0.1 | 2.2 | – | – | – | – | – | –
CC[C@H](C)[C@H](NC(=O)OC)C(=O)N1[C@@H](C)CC[C@H]1c1ncc(-c2ccc3c(c2)COc2cc4c(ccc5nc([C@@H]6C[C@@H]7CCC[C@@H]7N6C(=O)[C@@H](NC(=O)OC)C6CCOCC6)[nH]c54)cc2-3)[nH]1 [IP] | 0.029 | 0.025 | < 0.1 | 0.033 | < 0.1 | 0.041 | < 0.1 | < 0.1 | 0.074 | 0.067 | < 0.1 | 0.027 | < 0.1 | 18.9 | – | – | – | – | – | –
COC(=O)N[C@H](C(=O)N1[C@@H](C)CC[C@H]1c1ncc(-c2ccc3c(c2)COc2cc4c(ccc5nc([C@@H]6CC[C@H](C)N6C(=O)[C@@H](NC(=O)OC)[C@@H](C)OC(F)F)[nH]c54)cc2-3)[nH]1)C(C)C [FM, Methyl {(2S)-1-[(2S,5S)-2-(5-{2-[(2S,5S)-1-{(2S,3R)-3-(difluoromethoxy)-2-[(methoxycarbonyl)amino]butanoyl}-5-methylpyrrolidin-2-yl]-1,11-dihydroisochromeno[4′,3′:6,7]naphtho[1,2-d]imidazol-9-yl}-1H-imidazol-2-yl)-5-methylpyrrolidin-1-yl]-3-methyl-1-oxobutan-2-yl}carbamate] | 0.018 | 0.009 | < 0.1 | 0.019 | < 0.1 | – | – | 0.1 to 0.999 | 0.259 | 0.061 | < 0.1 | 0.007 | < 0.1 | 22.7 | – | – | – | – | – | –
